No end group written: not given here.

Assay [1] has as its system existing scars. Nature of the assay: Visium spatial transcriptomic analysis of treated existing scars. It counts as in vivo, mouse. Here is the method:
(§1) Wound specimens were rapidly harvested and flash frozen in OCT. Using the Visium Tissue Optimization Slide and Reagent Kit, permeabilization time was optimized at a thickness at 10 μm per section and 37 minutes for mouse tissue. Following cryo-sectioning at −20 degrees onto gene expression slides the expression slide and reagent kit was used to produce sequencing libraries. The libraries were then sequences using NextSeq (Illumina). Following demultiplication the raw FASTQ files and histology images were processed by sample with the Space Ranger software for genome alignment. The raw spaceranger output files for each sample was then read into a Seurat class object in R using Seurat's Load10× function. Data was normalized using the SCT transform with default parameters. To ascertain the integration of our scRNAseq and Visium spatial analysis we employed the FindTransferAnchors( ) function from Seurat, which allowed the alignment of data using the two datasets. This cross-platform linkage is performed serially in an unconstrained and constrained fashion.
To further analyze the spatial gene expression following scar rescue, the Visium platform was applied to scars treated with P1i or PBS at POD 30, 75, and 120 (FIG. 9A). Similar to analysis of acute wound healing, the epidermal, dermal, and hypodermal layers were easily elucidated from the spatial transcriptomic analysis in scars at POD 60 (FIG. 9B). Furthermore, the expected cell types including fibroblasts, immune, epithelial, and adipocytes were identified by spatial expression of representative genes (FIG. 36A).

Assay [2] has as its system human adipocytes. Description: Calcium imaging of hydrogel-bound adipocytes (Fluo-4 AM). The settings on record: stretched human adipocytes. It counts as cell-based. The text has this: Calcium imaging was used to determine in vitro Ca^2+ flow in hydrogel-bound adipocytes with or without mechanical strain and with or without Piezo1 inhibitor treatment. A Fluo-4, AM cell permeant kit (ThermoFisher, Cat: F-14201) was used per the manufacturer's instructions. […] Imagej was used for image quantification.

Assay [3] deals with human adipocytes. Description: Human adipocyte-populated collagen I hydrogels with or without mechanical stretch. The settings on record: 10% equibiaxial strain, 7 days.
The test system of assay [4] is human fibroblasts. Nature of the assay: Human fibroblasts in 3D collagen gels with stretching. It counts as cell-based. The text has this:
To further confirm that human cluster 3 represented a pro-regenerative ADF population we utilized our in vitro collagen gel system. We first, FACS sorted human fibroblasts based on expression of cluster 3 markers including ROBO2, CD29, and SFRP2 and seeded them into 3D collagen gels (FIG. 42B). […] In contrast, stretching with P1 inhibition kept the fibroblasts in a more adipocyte-like phenotype, with high expression of PPARg and low expression of Collagen Type I, similar to fibroblasts in an unstretched state (FIG. 42B).
To determine if P1i may activate […] Wnt pathways to maintain cluster 3 in an adipocyte-like phenotype, we applied Wnt5a recombinant protein to the in vitro collagen gel system (FIG. 42C). […] In summary, P1i treatment may revert fibroblasts towards the mechanically naïve fibroblast pro-regenerative fibroblast population through the activation of canonical Wnt pathways and thereby preventing the transition to pro-scarring phenotypes defined by CJUN and VCAM1 expression.

Assay [5] concerns wounds. Description: Visium spatial transcriptomic analysis of wounds. It counts as in vivo, mouse. Here is the method:
as §1

The test system of assay [6] is existing scars. Description: CODEX spatial protein analysis of treated existing scars. In kind it is in vivo, mouse. The text has this:
To spatially phenotype the pig specimens, we used Co-Detection by Indexing (CODEX), a novel assay in which markers are labeled with oligonucleotide-conjugated antibodies and iteratively imaged between cyclic additions and washouts of dye-labeled oligonucleotides. A custom CODEX panel was designed to assess wound cells within the tissue see Table 1). In brief, primary antibodies were individually barcoded and validated using the commercial supplier's protocols. OCT for mouse or paraffin blocks for human xenograft (n=3 per group) were sectioned at 8 μm thickness onto coverslips for CODEX antibody staining. Antigens were retrieved by standard citrate-EDTA processing prior to addition of CODEX antibodies. Using a CODEX-integrated Keyence BZ-X instrument (Akoya Biosciences) image acquisition was then performed. Using software from Akoya Biosciences the raw images were process, with cell segmentation, and rendering.
The CODEX was visualized using Akoya Biosciences Multiplex Analysis Viewer (MAV) in ImageJ. The resulting .fcs files were then concatenated in FlowJo and imported into the Monocle3 and STvEA R packages for further analysis. After debris removal, the processed UMAP manifold was analyzed through Monocle3 with a post-manifold threshold of >10,000 cells per cluster. Analysis of the protein staining patterns was then used to assign cell types. The cell interactions were then inferred using STvEA for cell types at >2.5% of total abundance at k=20 nearest neighbors to quantify cell spatial interactions, and differential interaction maps were generated using graph scores.
To phenotype the spatial environment in the context of rescuing existing scars, CODEX was further employed to spatially define protein expression, cell populations, and associated cell-cell interactions (FIG. 10A; markers shown in Table 1 middle column, 39A). […]

Regarding “GsMTx4 (GCLEFWWKCNPNDDKCCRPKLKCSKLFKLCNFSF; ends and bridges not checked; cysteine pairing not given here; UniProt Q7YT39 47-80, looked up) [P1i]”, the spatially identified adipocytes entry in assay [1] (POD 60, 105 and 150, vs PBS) is given as “greater in number”. In assay [1] (existing scars), the “differential interaction maps (Visium)” value was “larger number of interactions between adipocytes and epithelial cells”; the “differentially expressed genes during scar rescue” value is reported as “high expression of genes associated with the epidermis”. For the same substance, the “spatial expression of Piezo1, Piezo2, Yap1 and Ptk2” value in assay [1] (existing scars, all timepoints) was “observed mostly at the basal aspects of the wounds”. Also, the “calcium staining with stretching” value in assay [2] is “decreased”. The “stretch-induced hypertrophy of human adipocytes” value in assay [3] is on record as “reversed”. Besides, in assay [4], the “phenotype of human fibroblasts (PPARg, Collagen Type 1)” value is “a more adipocyte like phenotype with high expression of PPARg and low expression of Collagen Type 1”. For the same substance, in assay [5] (POD 14), the “differential interaction maps (Visium)” value was “strong interactions between adipocytes and fibroblasts”; the “fibroblast scRNA-seq cluster 0 (mechanically sensitive) spatial enrichment” value is listed as “highly enriched in PBS-treated POD 14 wounds compared to P1i or P2i treated wounds”; the “fibroblast scRNA-seq cluster 5 (mechanically naive) spatial presence” value is “observed”; the “spatial expression of Piezo1, Piezo2, Ptk2 and Yap1” value is on record as “appeared mostly at the basal region”. Further, the “spatially variable features (gene expression)” value in assay [5] (POD 14) was “high expression of markers associated with the epidermis including Krt1 and Krt14”. Besides, in assay [5] (POD 14, vs PBS), the “adipocyte and epithelial cells in the spatial environment” value is “enriched”. Moreover, in assay [6] (POD 60, 105 and 150), the “adipocyte cluster 2 interactions with epithelial cells” value was “interacted more strongly with epithelial cells” and the “expression of mechanical markers” value is reported as “PBS treated wounds showed higher expression of mechanical markers”. Besides, the “interactions mediated by adipocyte clusters” value in assay [6] (vs PBS treated scars) is reported as “enriched interactions mediated by adipocyte cluster 2”.

For the origin of these results see patent publication US20250195474A1, “Piezo Inhibition for Wound Healing” (priority 2022, published 2025).
